Reference: BigSolDB 2.1

O=C(O)c1ccco1
Conditions | solubility (mole fraction)
in acetone, 280.15 K | 0.153
in acetone, 283.25 K | 0.159
in acetone, 288.55 K | 0.172
in acetone, 293.25 K | 0.189
in acetone, 299.15 K | 0.206
in acetone, 302.95 K | 0.218
in acetone, 308.45 K | 0.237
in acetone, 315.75 K | 0.265
in ethanol, 279.35 K | 0.152
in ethanol, 282.75 K | 0.162
in ethanol, 287.35 K | 0.176
in ethanol, 294.55 K | 0.198
in ethanol, 297.65 K | 0.208
in ethanol, 303.05 K | 0.225
in ethanol, 310.15 K | 0.25
in ethanol, 313.75 K | 0.268
in ethanol, 320.75 K | 0.29
in ethanol, 325.75 K | 0.311
in ethyl acetate, 281.35 K | 0.0858
in ethyl acetate, 287.05 K | 0.0983
in ethyl acetate, 291.95 K | 0.11
in ethyl acetate, 296.55 K | 0.124
in ethyl acetate, 301.25 K | 0.137
in ethyl acetate, 305.15 K | 0.147
in ethyl acetate, 307.45 K | 0.157
in ethyl acetate, 312.15 K | 0.171
in ethyl acetate, 316.35 K | 0.191
in ethyl acetate, 322.35 K | 0.216
in methyl acetate, 280.85 K | 0.106
in methyl acetate, 284.15 K | 0.117
in methyl acetate, 287.75 K | 0.127
in methyl acetate, 291.65 K | 0.137
in methyl acetate, 295.05 K | 0.146
in methyl acetate, 298.75 K | 0.156
in methyl acetate, 302.35 K | 0.166
in methyl acetate, 308.25 K | 0.184
in methyl acetate, 316.35 K | 0.216
in methyl acetate, 319.35 K | 0.232
in n-propanol, 282.95 K | 0.138
in n-propanol, 288.35 K | 0.158
in n-propanol, 293.75 K | 0.176
in n-propanol, 297.55 K | 0.195
in n-propanol, 303.15 K | 0.208
in n-propanol, 307.65 K | 0.226
in n-propanol, 312.55 K | 0.244
in n-propanol, 315.45 K | 0.258
in n-propanol, 319.75 K | 0.273
in n-propanol, 326.15 K | 0.3
in water, 284.85 K | 0.0032
in water, 295.25 K | 0.0064
in water, 299.45 K | 0.0079
in water, 304.65 K | 0.0095
in water, 310.65 K | 0.0127
in water, 313.25 K | 0.0156
in water, 316.85 K | 0.0184
in water, 319.45 K | 0.022
in water, 321.95 K | 0.0282
in water, 324.75 K | 0.0342
